The conditions of this data set: 101 kPa, Liquid.

SMILES strings stand for the structures. ± gives the expanded uncertainty stated by the source.

The term mass density denotes the mass of a sample divided by its volume. With `CCCCCC[n+]1ccn(C)c1.O=S(=O)([N-]S(=O)(=O)C(F)(F)F)C(F)(F)F`, the mass density reads like this: (298.15 K) 1391 ± 11 kg/m3; (308.15 K) 1373 ± 11 kg/m3; (323.15 K) 1340 ± 10 kg/m3.

As for `CCCCCCCCCCn1cc[n+](C)c1.O=S(=O)([N-]S(=O)(=O)C(F)(F)F)C(F)(F)F`, the mass density by setting is: (298.15 K) 1284 ± 10 kg/m3; (308.15 K) 1256 ± 10 kg/m3; (323.15 K) 1221 ± 10 kg/m3.

For the compound `CCCCCCCCn1cc[n+](C)c1.O=S(=O)([N-]S(=O)(=O)C(F)(F)F)C(F)(F)F`, the mass density reads like this: (298.15 K) 1343 ± 11 kg/m3; (308.15 K) 1323 ± 10 kg/m3; (323.15 K) 1287 ± 10 kg/m3.

The record behind these values is the NIST ThermoML archive (doi:10.1021/je4001944).
